From patent publication US9315459B2, “Crystalline forms of 4-[2-(4-methylphenylsulfanyl)-phenyl] piperidine” (priority 2006, dated 2016)

What was measured:
[1] = target: T1, human alpha1A-7 receptors (Homo sapiens, UniProt P35348); assay: Functional assay, adrenaline evoked release of Ca2+ in CHO cells expressing human alpha1A-7 receptors; type: cell-based
T1 construct: expressed in transfected cells; host or cells: CHO cells
T1 sequence (P35348 1-466): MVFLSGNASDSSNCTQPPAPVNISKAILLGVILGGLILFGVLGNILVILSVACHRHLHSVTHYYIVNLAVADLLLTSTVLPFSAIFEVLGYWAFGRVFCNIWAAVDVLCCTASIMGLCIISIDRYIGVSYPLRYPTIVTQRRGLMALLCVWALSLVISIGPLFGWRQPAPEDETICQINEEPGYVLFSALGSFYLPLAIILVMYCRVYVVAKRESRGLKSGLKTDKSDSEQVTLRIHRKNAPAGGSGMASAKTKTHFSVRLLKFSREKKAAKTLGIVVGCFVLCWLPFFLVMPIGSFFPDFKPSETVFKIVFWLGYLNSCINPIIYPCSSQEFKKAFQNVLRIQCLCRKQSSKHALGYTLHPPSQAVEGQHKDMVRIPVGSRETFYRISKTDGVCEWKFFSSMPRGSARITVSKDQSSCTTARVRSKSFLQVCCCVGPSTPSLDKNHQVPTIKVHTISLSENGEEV
Procedure: These experiments were carried out essentially as described below. All cells were cultured in DMEM medium supplemented with 10% BCS, 4 mM L-glutamine (or 2 mM in the case of COS-7), and 100 units/ml penicillin plus 100 μg/ml streptomycin, at 37° C., in 5% CO2. Twenty-four hours prior to assays, CHO cells expressing the human alpha1A-7 receptors were seeded into 384-well black wall microtiter plates coated with poly-D-lysine. […] After excess dye was discarded, cells were washed in assay buffer and layered with a final volume equal to 45 μl/well (or 30 ul/well for antagonist assay). […] Basal fluorescence was monitored in a fluorometric imaging plate reader or FLIPR™ from Molecular Devices (Sunnyvale, Calif.) with an excitation wavelength of 488 nm and an emission range of 500 to 560 nm. Laser excitation energy was adjusted so that basal fluorescence readings were approximately 8,000 relative fluorescent units (RFU). Cells were then stimulated at room temperature with agonists diluted in assay buffer (15 μl), and RFU were measured at 1.5 second intervals over a period of 2.5 min. Maximum change in fluorescence was calculated for each well. Concentration-response curves derived from the maximum change in fluorescence were analyzed by nonlinear regression (Hill equation).

[2] = test system: extracellular levels of acetylcholine; assay: Microdialysis, extracellular acetylcholine in prefrontal cortex of freely-moving rats (Example 2F); type: in vivo, rat; settings: Wistar rats, s.c., FIG. 24
Procedure: The experiment was designed to evaluate the effects of compounds of the present invention on extracellular levels of acetylcholine in the prefrontal cortex of freely-moving rats.
Male Wistar rats (280-350 g; Harlan, Zeist, The Netherlands) were used for the experiments. Rats were individually housed in plastic cages (30×30×40 cm) and had ad libitum access to food and water.
Rats were anesthetized using isoflurane (2%, 400 mL/min N2O, 400 ml/min O2). Lidocain (10% m/v) was used for local anesthesia. […]
Experiments were carried out 24-48 hours after surgery. […] Samples were collected by an automated fraction collector (CMA 142), and stored at −80° C. until analyzed. […]
Concentrations of acetylcholine were determined by HPLC with tandem mass spectrometry (MS/MS) detection. […]
The LC/MS analyses were performed using an API 4000 MS/MS system consisting of an API 4000 MS/MS detector and a Turbo Ion Spray interface (both from Applied Biosystems, the Netherlands). […] Data were calibrated and quantitated using the Analyst™ data system (Applied Biosystem, version 1.2).
Two consecutive microdialysis samples with less then 50% variation were taken as baseline levels and set at 100%. Changes in acetylcholine concentration were expressed as percent of baseline within the same subject.

SMILES: Cc1ccc(Sc2ccccc2C2CCNCC2)cc1 [compound I, 4-[2-(4-methylphenylsulfanyl)-phenyl]piperidine]
- Functional profile, adrenaline evoked release of Ca2+ [1]: antagonists
- Extracellular level of acetylcholine [2]: increase
